Holding throughout (format): cell-based
The test system of assay [1] is Enterococcus hirae (ATCC 10541). The assay is described as follows: Inactivator test per prEN13727 (2008) and prEN13624 (2010). The conditions noted are these: n = 4. The text has this: (§1) Es wurden Öl in Wasser Emulsionen hergestellt, die unterschiedliche Mengen X des antimikrobiellen Wirkstoffs Polyhexamethylenbiguanidiniumhydrochlorid (PHMB) [erfindungsgemäß] und Chlorhexidin (CHX) [Vergleich] aufweisen. Die Öl in Wasser Emulsionen sind in Tabelle 7 wiedergegeben. Tabelle 7
(§2) Um die Wirksamkeit der antimikrobiellen Wirkstoffe in einem bestimmten Konzentrationsbereich in einer Öl in Wasser Emulsion zu testen wurde ein Inaktivatortest nach prEN13727 (2008) und prEN13624 (2010) gegenüber Enterococcus hirae (ATCC 10541), Escherichia coli (ATCC 11229), Pseudomonas aeruginosa (ATCC 15442) und Staphylococcus aureus (ATCC 6538) für n = 4 durchgeführt. Die Messergebnisse sind in Tabelle 8 wiedergegeben. Tabelle 8

Assay [2] relates to Escherichia coli (ATCC 11229). The description is as above. The conditions noted are these: n = 4.
Excerpt: as §1, §2

For assay [3], the system named is Pseudomonas aeruginosa (ATCC 15442). The description is as above. To be noted: n = 4.
Excerpt: as §1, §2

The test system of assay [4] is Staphylococcus aureus (ATCC 6538). The description is as above. The conditions noted are these: n = 4.
Excerpt: as §1, §2

The next assay deals with Prüfmikroorganismen. The assay is described as follows: Inactivator test, overall statement for all four test organisms. To be noted: concentration range 0,02 - 0,05 Gew.-% in o/w emulsion.
Excerpt: as §2

Setting [5] is: 0,02% active in o/w emulsion (Tabelle 7).
The mark [6] stands for this setting: 0,03% active in o/w emulsion (Tabelle 7).
Where [7] appears, read: 0,04% active in o/w emulsion (Tabelle 7).
The mark [8] stands for this setting: 0,05% active in o/w emulsion (Tabelle 7).

SMILES strings stand for the structures.

Regarding `N=C(NCCCCCCNC(=N)NC(=N)Nc1ccc(Cl)cc1)NC(=N)Nc1ccc(Cl)cc1` [CHX, Chlorhexidin], the “Kolonien-bildende Einheiten E. hirae” value in assay [1] (setting [5]) is reported as 104 ± 4; in assay [1] (setting [6]), 102 ± 5; in assay [1] (setting [7]), 106 ± 3; in assay [1] (setting [8]), 106 ± 3. The “Kolonien-bildende Einheiten E. coli” value in assay [2] (setting [5]) is reported as 132 ± 1; in assay [2] (setting [6]), 131 ± 5; in assay [2] (setting [7]) it was 130 ± 9; in assay [2] (setting [8]), 130 ± 9. Besides, the “Kolonien-bildende Einheiten P. aeruginosa” value is recorded as 316 ± 50 in assay [3] (setting [5]), 315 ± 43 in assay [3] (setting [6]), 355 ± 10 in assay [3] (setting [7]) and 339 ± 37 in assay [3] (setting [8]). The “Kolonien-bildende Einheiten S. aureus” value in assay [4] (setting [5]) is 149 ± 5; in assay [4] (setting [6]), 156 ± 13; in assay [4] (setting [7]), 160 ± 8; in assay [4] (setting [8]), 159 ± 10. Also, the “mikrobiozide Wirkung in der Öl in Wasser Emulsion” value in the assay with Prüfmikroorganismen is on record as “inaktiviert vollständig”.

The record behind these values is EP2552195B1, “ANTIMICROBIAL OIL-IN-WATER EMULSION” (B. Braun Melsungen AG, priority 2010, dated 2011).
